Assay results: patent US12227494B2, “Polymorphisms of HM30181 mesylate” (ATHENEX R&D, LLC, priority 2020, dated 2025)

Assay: Dynamic Vapor Sorption (DVS) with XRPD post-DVS
Type: physicochemical
Conditions: for Hygroscopicity by DVS (in words) / Water absorbed by DVS: 0-95% RH
Procedure: XRPD was performed using a Panalytical X'Pert3™ Powder XRPD and on a Si zero-background holder. The 2θ position was calibrated against a Panalytical™ 640 Si powder standard. Details of XRPD used in the experiments are listed below in Table 20.
Dynamic Vapor Sorption (DVS) was measured using a SMS (Surface Measurement Systems™) DVS Intrinsic. Parameters for DVS test are listed below in Table 24.

## COc1cc2c(cc1OC)CN(CCc1ccc(-n3nnc(-c4cc(OC)c(OC)cc4NC(=O)c4cc(=O)c5ccccc5o4)n3)cc1)CC2.CS(=O)(=O)O [HM30181 mesylate Type A, HM30181 mesylate]
  Hygroscopicity by DVS (in words): hygroscopic
  Water absorbed by DVS: 2.26%
Listed as Type A
  Hygroscopicity by DVS (in words): Monohydrate (hygroscopic
  Water absorbed by DVS: to 2.26% at 95% RH)
After DVS 0-95% RH
  XRPD pattern post-DVS: no change in XRPD pattern observed
